What was measured:
human μ-opiate receptor = biological target: T1, human μ-opiate receptor (Homo sapiens, UniProt P35372); assay: μ-opiate receptor binding assay with [3H] naloxone (WGA-SPA beads); conditions: 1 μmol/l test substance, 1 nmol/l [3H] naloxone, CHO-K1 cell membranes expressing human μ-opiate receptor
T1 construct: purchased NEN, Zaventem, Belgium RB-HOM; host or cells: CHO-K1 cells (membrane preparation)
How it was run: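 Scintillation proximity readout: [3H]naloxone (1 nmol/l) displacement measured after 90 min, room temperature, on human μ-receptor CHO-K1 membranes in Tris-HCl/azide/BSA buffer; 25 μmol/l naloxone defined non-specific binding. Values are % specific-binding inhibition at 1 μmol/l, or Ki from IC50 (Cheng-Prusoff).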

ORL1 receptor = biological target: T2, ORL1 receptor (Homo sapiens, UniProt P41146); assay: ORL1 receptor binding assay with 3H-nociceptin/orphanin FQ (WGA-SPA beads); conditions: c=1 μM test substance; 0.5 nM 3H-nociceptin/orphanin FQ; membranes of recombinant CHO-ORL1 cells
T2 construct: expressed in transfected cells; host or cells: CHO (recombinant CHO-ORL1 cells), membranes
How it was run: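 Affinity given as nanomolar Ki or as % inhibition at c=1 μM. Membranes of CHO cells expressing recombinant ORL1 (20 μg protein) were incubated one hour at room temperature with 0.5 nM 3H-nociceptin/orphanin FQ in Hepes 50 mM, pH 7.4, plus MgCl2 and EDTA; bound ligand detected by SPA bead scintillation counting.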

T2 sequence (P41146 whole entry): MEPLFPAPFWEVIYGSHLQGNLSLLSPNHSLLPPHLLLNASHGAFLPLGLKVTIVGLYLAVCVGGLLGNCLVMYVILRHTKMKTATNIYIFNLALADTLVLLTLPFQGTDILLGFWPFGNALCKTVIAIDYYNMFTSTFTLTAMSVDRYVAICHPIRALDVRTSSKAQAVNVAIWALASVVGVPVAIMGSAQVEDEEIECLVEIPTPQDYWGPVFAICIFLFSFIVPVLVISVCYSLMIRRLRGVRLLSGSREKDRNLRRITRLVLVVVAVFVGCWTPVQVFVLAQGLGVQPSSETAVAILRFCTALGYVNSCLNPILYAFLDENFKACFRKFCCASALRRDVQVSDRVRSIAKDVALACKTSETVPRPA
T1 sequence (P35372 whole entry): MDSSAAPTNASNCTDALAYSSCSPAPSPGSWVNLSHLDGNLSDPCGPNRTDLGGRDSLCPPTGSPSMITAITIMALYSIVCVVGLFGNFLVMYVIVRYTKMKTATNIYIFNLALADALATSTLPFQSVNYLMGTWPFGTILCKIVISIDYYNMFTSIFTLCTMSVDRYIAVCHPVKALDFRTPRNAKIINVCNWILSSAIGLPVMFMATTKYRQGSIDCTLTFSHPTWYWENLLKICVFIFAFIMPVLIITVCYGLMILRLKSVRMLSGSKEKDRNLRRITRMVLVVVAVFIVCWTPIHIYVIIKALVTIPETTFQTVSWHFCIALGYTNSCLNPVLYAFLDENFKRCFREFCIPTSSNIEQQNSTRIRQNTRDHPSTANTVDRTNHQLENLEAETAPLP

SMILES | % Inhibition (μ) at 1 μM (human μ-opiate receptor; 1 µM) | % Inhibition (ORL1) at 1 μM (ORL1 receptor) | % Inhibition (μ) at 1 μM (human μ-opiate receptor) | inhibition at 1 µM (human μ-opiate receptor) | inhibition at 1 µM (ORL1 receptor)
CN(CCN1CCC(c2ccccc2)(N(C)C)CC1)C(=O)c1cc2cc(F)ccc2[nH]1 [Example 3, N-(2-(4-(Dimethylamino)-4-phenylpiperidin-1-yl)ethyl)-5-fluoro-N-methyl-1H-indol-2-amide] | 92% | 90% |  |  | 
COc1ccc2[nH]cc(CNCCN3CCC(c4cccs4)(N(C)C)CC3)c2c1 [Example 76, 1-(2-((5-Methoxy-1H-indol-3-yl)methylamino)ethyl)-N,N-dimethyl-4-(thiophen-2-yl)pipendin-4-amine] |  | 93% | 99% |  | 
CN(C)C1(c2ccccc2)CCN(C(=O)C2CN(C(=O)c3cccc4c3ccn4C)c3ccccc32)CC1 (stereo not shown) [Example 114, (4-(dimethylamino)-4-phenylpiperidin-1-yl)(1-(1-methyl-1H-indole-4-carbonyl)indolin-3-yl)methanone] |  |  |  | 90% | 56%
CN(C)C1(c2cccs2)CCN(CCNCc2c[nH]c3ccc(Cl)cc23)CC1 [Example 178, 1-(2-((5-chloro-1H-indol-3-yl)methylamino)ethyl)-N,N-dimethyl-4-(thiophen-2-yl)piperidin-4-amine] |  |  |  | 100% | 99%
CC(CC(=O)N(C)CCCN1CCC(c2ccccc2)(N(C)C)CC1)c1c[nH]c2ccccc12 (stereo not shown) [Example 59, N-(3-(4-(Dimethylamino)-4-phenylpiperidin-1-yl)propyl)-3-(1H-indol-3-yl)-N-methylbutanamide] |  |  |  | 86% | 60%
CN(C(=O)CCc1cn(C)c2ccccc12)C(C(=O)N1CCC(c2cccs2)(N(C)C)CC1)c1ccccc1 (stereo not shown) [Example 126, N-(2-(4-(dimethylamino)-4-(thiophen-2-yl)piperidin-1-yl)-2-oxo-1-phenylethyl)-N-methyl-3-(1-methyl-1H-indol-3-yl)propanamide] |  |  |  | 90% | 40%
CN(CCN1CCC(c2ccccc2)(N(C)C)CC1)C(=O)c1ccc2cc[nH]c2c1 [Example 1, N-(2-(4-(Dimethylamino)-4-phenylpiperidin-1-yl)ethyl)-N-methyl-1H-indol-6-amide] | 94% | 80% |  |  | 
CC(C)C(C(=O)N1CCC(c2ccccc2)(N(C)C)CC1)N(C)C(=O)Cc1c[nH]c2cc(F)ccc12 (stereo not shown) [Example 82, N-(1-(4-(dimethylamino)-4-phenylpiperidin-1-yl)-3-methyl-1-oxobutan-2-yl)-2-(6-fluoro-1H-indol-3-yl)-N-methylacetamide] |  |  |  | 97% | 97%
CC(C)C(C(=O)N1CCC(c2ccccc2)(N(C)C)CC1)N(C)C(=O)Cc1c[nH]c2ccc(Br)cc12 (stereo not shown) [Example 83, 2-(5-bromo-1H-indol-3-yl)-N-(1-(4-(dimethylamino)-4-phenylpiperidin-1-yl)-3-methyl-1-oxobutan-2-yl)-N-methylacetamide] |  |  |  | 84% | 95%
CC(CC(=O)NCCC(=O)N1CCC(c2ccccc2)(N(C)C)CC1)c1c[nH]c2ccccc12 (stereo not shown) [Example 92, N-(3-(4-(dimethylamino)-4-phenylpiperidin-1-yl)-3-oxopropyl)-3-(1H-indol-3-yl)butanamide] |  |  |  | 93% | 88%
COc1ccc2[nH]cc(CN(C)CCN3CCC(c4ccccc4)(N(C)C)CC3)c2c1 [Example 190, 1-(2-(((5-methoxy-1H-indol-3-yl)methyl)(methyl)amino)ethyl)-N,N-dimethyl-4-phenylpiperidin-4-amine] |  |  |  | 97% | 80%
CC(C)C(CC(=O)NC(CC(=O)N1CCC(c2cccs2)(N(C)C)CC1)c1ccccc1)c1c[nH]c2ccccc12 (stereo not shown) [Example 85, N-(3-(4-(dimethylamino)-4-(thiophen-2-yl)piperidin-1-yl)-3-oxo-1-phenylpropyl)-3-(1H-indol-3-yl)-4-methylpentanamide] |  |  |  | 101% | 94%
Cc1c(CN(C)CCN2CCC(c3ccccc3)(N(C)C)CC2)c2ccccc2n1C [Example 189, 1-(2-(((1,2-dimethyl-1H-indol-3-yl)methyl)(methyl)amino)ethyl)-N,N-dimethyl-4-phenylpiperidin-4-amine] |  |  |  | 100% | 83%
CN(C)C1(c2ccccc2)CCN(C(=O)C2CN(Cc3ccc4cc[nH]c4c3)c3ccccc32)CC1 (stereo not shown) [Example 170, (1-((1H-indol-6-yl)methyl)indolin-3-yl)(4-(dimethylamino)-4-phenylpiperidin-1-yl)methanone] |  |  |  | 80% | 38%
CN(CCCN1CCC(c2cccs2)(N(C)C)CC1)C(=O)CCc1cn(C)c2ccccc12 [Example 13, N-(3-(4-(Dimethylamino)-4-(thiophen-2-yl)piperidin-1-yl)propyl)-N-methyl-3-(1-methyl-1H-indol-3-yl)propanamide] |  |  |  | 80% | 35%
CN(C)C1(c2ccccc2)CCN(C(=O)CCNC(=O)C2CCCc3c2[nH]c2ccc(Cl)cc32)CC1 (stereo not shown) [Example 107, 6-chloro-N-(3-(4-(dimethylamino)-4-phenylpiperidin-1-yl)-3-oxopropyl)-2,3,4,9-tetrahydro-1H-carbazole-1-carboxamide] |  |  |  | 52% | 63%
CN(CCCN1CCC(c2ccccc2)(N(C)C)CC1)C(=O)c1ccc2cc[nH]c2c1 [Example 56, N-(3-(4-(Dimethylamino)-4-phenylpiperidin-1-yl)propyl)-N-methyl-1H-indole-6-carboxamide] |  |  |  | 71% | 35%
CN(CCN1CCC(c2ccccc2)(N2CCCC2)CC1)Cc1ccc2[nH]ccc2c1 [Example 140, N-((1H-indol-5-yl)methyl)-N-methyl-2-(4-phenyl-4-(pyrrolidin-1-yl)piperidin-1-yl)ethanamine] |  |  |  | 54% | 17%
CN(CCCN1CCC(c2ccccc2)(N(C)C)CC1)C(=O)Cc1c[nH]c2ccc(Br)cc12 [Example 63, 2-(5-Bromo-1H-indol-3-yl)-N-(3-(4-(dimethylamino)-4-phenylpiperidin-1-yl)propyl)-N-methylacetamide] |  |  |  | 81% | 41%
CN(C)C1(c2cccs2)CCN(CCNCc2ccc3[nH]ccc3c2)CC1 [Example 69, 1-(2-((1H-Indol-5-yl)methylamino)ethyl)-N,N-dimethyl-4-(thiophen-2-yl)piperidin-4-amine] |  |  |  | 96% | 90%
